In patent publication US20260152777A1, “METHOD FOR PRODUCING EPIGALLOCATECHIN GALLATE MONOGLUCOSIDE” (GIVAUDAN SA, priority 2022, published 2026):

How the values were obtained:
[1] = system: spontaneous formation of Advanced Glycation End-products (AGEs); experiment: Anti-glycation in tubo assay (BSA + ribose, fluorescence); type: biochemical; details: 17 h at 37° C.; for IC50: BSA + ribose, read-out: IC50 in well (concentration which inhibits AGEs formation by half)
Protocol: The anti-glycation effect was evaluated using an in tubo assay to measure the spontaneous formation of Advanced Glycation End-products (AGEs). This assay was conducted on a 96-wells microplate. […] The extracts were diluted in sodium phosphate buffer (0.1 M, pH 7.4). Several dilutions were tested. Each diluted extract was run in triplicate. A standard range of aminoguanidine was used as inhibitor reference (positive control). A mixture of the sodium phosphate buffer and BSA was used to validate the experiment and a mixture of sodium phosphate buffer, BSA and ribose was used as the positive control. Two blanks were carried out for the extract: • with phosphate buffer, BSA and extract • with phosphate buffer, ribose and extract The microplate was agitated and incubated for 17 h at 37° C. The fluorescence reading was performed with ? excitation 340 nm and ? emission 420 nm. The anti-glycation activity of the extract was calculated as follows: [formula] FI: Fluorescence of tested extract; blank extract (ribose or BSA); positive control; negative control. Based on the above measurements and calculation, the IC50, i.e. the concentration of the extract which inhibits AGEs formation by half, was calculated.

[2] = system: Normal Human Epidermal Keratinocytes (NHEKs); experiment: Antioxidant activity: ROS production in keratinocytes stressed with TBP (DCFH-DA probe); type: cell-based; details: at 200 μM
Protocol: A 96 wells-plate was coated with a collagen I solution at 50 μg/ml. Normal Human Epidermal Keratinocytes (NHEKs) were seeded at 20′000 cells per well with four replicates. Cells were incubated for 24 hours in complete medium (Epilife, Gibco) supplemented with Human keratinocyte growth supplements (HKGS) factor (Gibco) and 1% antibiotics (Sigma) at 37° C. with 5% CO2. […] The evolution of the fluorescence was followed for 1 hour.

[3] = system: female volunteers with a dark skin type (phototype IV or more) and dull skin; experiment: Clinical evaluation on African skin: skin color by Chromameter L* parameter; type: in vivo, human; details: cream with 0.01% of EGCG aglycone, full face twice daily, dark skin type
Protocol: The clinical study was carried out on 85 female volunteers aged from 19 to 47 years, which were divided in three groups: active, placebo and aglycone. The study was performed in South Africa on female volunteers with a dark skin type (phototype IV or more) and dull skin. All participants provided signed informed consent at the beginning of the study. The study was conducted according to the guidelines of the Declaration of Helsinki. […] Skin color evolution was measured after 14, 28 and 56 days using L* parameter measurement by Chromameter®.
The skin color was evaluated by means of a Chromameter CR400, which measures skin color, and the parameter L* (lightness) was recorded. The greater the value, the lighter the skin color. Depending on the test type, at least three or at least 15 readings were taken at each test sub-site for each time interval to serve as the specific pigmentation sport color measurement component of the study. Skin color was analyzed at D0, D14, D28 and D56.
For all studies in vivo, a Shapiro Wilk test was used to verify whether the raw data followed the Gaussian Law. In case of Normally-distributed data, the mean values were compared using either an unpaired or paired t student test. In case of non-Normally-distributed data, a Wilcoxon (paired) and Kruskal-Wallis test followed by a Mann-Whitney U (unpaired) test were used for paired data and unpaired data, respectively.

[4] = Skin penetration by Raman spectroscopy (ex vivo); type: in vitro ADME, human; details: human
Protocol: At the end of the incubation period, the skin explants were frozen in Optimal Cutting Temperature (OCT; VWR) at −80° C. and then cut longitudinally using a cryotome with a thickness of 20 μm. For each explant, 3 tissue sections were selected and deposited on a CaF2 support for Raman imaging analysis. The processing of corrected data maps was performed by using a software based on least squares fitting method that operates in the Matlab environment. This method involves mathematical modeling of reference spectra in the overall spectral image to determine the contribution and distribution of these spectra within the image. The reference spectra were the modelled spectra of the following products: Aglycone, glucoside mixture, 4′-O-α-monoglucoside and untreated skin control.

human skin explants = experiment: Whitening activity (ex vivo), Fontana-Masson staining for melanin quantification; type: cell-based; details: at 2%, topical, 7 days
Protocol: Fresh human skin explants were obtained from skin phototype III and VI donors, aged of 46±25 years. […] Kojic acid (Sigma-Aldrich) at 2% was topically applied and incubated under the same conditions, serving as positive control. The untreated condition was treated with the vehicle (distilled water). The medium was renewed every other day. After the end of culture, the skin explants were sampled and put in formalin before being dehydrated and embedded in paraffin for Fontana-Masson staining.
Skin explants fixed in formalin were dehydrated and embedded in paraffin. Sections of 4 μm thickness were dewaxed and then stained by Fontana-Masson silver method for melanin.
Images were collected using an Axio Observer Inverted fluorescence microscope (Zeiss) in bright field mode.
Melanin was quantified using two open source optical imaging software programs. Photomicrographs (jpeg format) of Fontana-Masson tissue sections were opened in GIMP-GNU Image Manipulation Program. The brown-black color signals corresponding to melanin grains on stained sections were selected, copied and pasted into a new image and saved as a jpeg file; this jpeg file consists solely of black/brown (melanin grains) on a white background. This image was subsequently opened using the ImageJ program. The image was then inverted and the mean intensity was obtained.

## N=C(N)NN [aminoguanidine, reference compound]
[1]
  IC50: 326 µM

## Oc1ccc(C=Cc2cc(O)cc(O)c2)cc1 [Resveratrol]
[2]; 24 h, NHEKs stressed with TBP 5 mM
  reduction of ROS production: 61%
[2]; TBP column = 100, Untreated = 27.5
  ROS, Mean (% of untreated): 39 % of untreated

## O=C(O[C@@H]1Cc2c(O)cc(O)cc2O[C@@H]1c1cc(O)c(O)c(O)c1)c1cc(O)c(O)c(O)c1 [EGCG aglycone, epigallocatechin gallate]
[1]
  IC50: 128 µM
[1]; tested concentration 0.109 mM
  Inhibition AGE's: 31.95%
[1]; tested concentration 0.436 mM
  Inhibition AGE's: 59.84%
[1]; tested concentration 2.180 mM
  Inhibition AGE's: 93.56%
[1]; tested concentration 10.9 mM
  Inhibition AGE's: 97.36%
[3]
  L* on uneven skin tone area: slight decrease of L*
  global skin color whitening, 15 measurements on hemi face: almost no whitening effect

## OCC1OC(Oc2c(O)cc(C3Oc4cc(O)cc(O)c4CC3O)cc2O)C(O)C(O)C1O (stereo not drawn) [epigallocatechin 4′-O-α-monoglucoside, Epigallocatechin 4′-O-α-monoglucoside]
[4]
  bioavailability in the skin: much higher bioavailability in the skin than the respective aglycones

## O=c1cc(CO)occ1O [Kojic acid]
Human skin explants
  reduction of melanin content compared to untreated: 34%
